Assay: xn = mol fraction of the nth substance listed
Settings: Liquid, Vibrating tube method

CCCCCCCCCC [decane] + CCCCCC
Settings	mass density [kg/m3]
313.08 K, 1000 kPa, x2 = 0.8991	654.3
313.08 K, 2000 kPa, x2 = 0.8991	655.28
313.08 K, 3000 kPa, x2 = 0.8991	656.28
313.08 K, 4000 kPa, x2 = 0.8991	657.3
313.08 K, 5000 kPa, x2 = 0.8991	658.33
313.08 K, 6000 kPa, x2 = 0.8991	659.37
313.08 K, 7000 kPa, x2 = 0.8991	660.42
313.08 K, 8000 kPa, x2 = 0.8991	661.47
313.08 K, 9000 kPa, x2 = 0.8991	662.52
313.08 K, 10000 kPa, x2 = 0.8991	663.56
313.08 K, 11000 kPa, x2 = 0.8991	664.61
313.08 K, 12000 kPa, x2 = 0.8991	665.63
313.08 K, 13000 kPa, x2 = 0.8991	666.66
313.08 K, 14000 kPa, x2 = 0.8991	667.66
313.08 K, 15000 kPa, x2 = 0.8991	668.63
313.08 K, 16000 kPa, x2 = 0.8991	669.61
313.08 K, 17000 kPa, x2 = 0.8991	670.54
313.08 K, 18000 kPa, x2 = 0.8991	671.45
313.08 K, 19000 kPa, x2 = 0.8991	672.34
313.08 K, 20000 kPa, x2 = 0.8991	673.21
313.08 K, 21000 kPa, x2 = 0.8991	674.04
313.08 K, 22000 kPa, x2 = 0.8991	674.91
313.08 K, 23000 kPa, x2 = 0.8991	675.69
313.08 K, 24000 kPa, x2 = 0.8991	676.48
313.08 K, 25000 kPa, x2 = 0.8991	677.31
313.17 K, 1000 kPa, x2 = 0.2185	704.92
313.17 K, 2000 kPa, x2 = 0.2185	705.74
313.17 K, 3000 kPa, x2 = 0.2185	706.66
313.17 K, 4000 kPa, x2 = 0.2185	707.53
313.17 K, 5000 kPa, x2 = 0.2185	708.39
313.17 K, 6000 kPa, x2 = 0.2185	709.25
313.17 K, 7000 kPa, x2 = 0.2185	710.11
313.17 K, 8000 kPa, x2 = 0.2185	710.96
313.17 K, 9000 kPa, x2 = 0.2185	711.8
313.17 K, 10000 kPa, x2 = 0.2185	712.63
313.17 K, 10990 kPa, x2 = 0.2185	713.46
313.17 K, 12000 kPa, x2 = 0.2185	714.27
313.17 K, 13000 kPa, x2 = 0.2185	715.05
313.17 K, 14000 kPa, x2 = 0.2185	715.84
313.17 K, 15000 kPa, x2 = 0.2185	716.63
313.17 K, 16000 kPa, x2 = 0.2185	717.4
313.17 K, 17000 kPa, x2 = 0.2185	718.15
313.17 K, 18000 kPa, x2 = 0.2185	718.88
313.17 K, 19000 kPa, x2 = 0.2185	719.62
313.17 K, 20000 kPa, x2 = 0.2185	720.34
313.17 K, 21000 kPa, x2 = 0.2185	721.06
313.17 K, 22000 kPa, x2 = 0.2185	721.76
313.17 K, 23000 kPa, x2 = 0.2185	722.46
313.17 K, 24000 kPa, x2 = 0.2185	723.13
313.17 K, 25000 kPa, x2 = 0.2185	723.78
313.18 K, 1000 kPa, x2 = 0.0456	713.33
313.18 K, 1000 kPa, x2 = 0.7524	668.32
313.18 K, 2000 kPa, x2 = 0.0456	714.22
313.18 K, 2000 kPa, x2 = 0.7524	669.4
313.18 K, 3000 kPa, x2 = 0.0456	715.11
313.18 K, 3000 kPa, x2 = 0.7524	670.46
313.18 K, 4000 kPa, x2 = 0.0456	715.98
313.18 K, 4000 kPa, x2 = 0.7524	671.5
313.18 K, 5000 kPa, x2 = 0.0456	716.84
313.18 K, 5000 kPa, x2 = 0.7524	672.55
313.18 K, 6000 kPa, x2 = 0.0456	717.69
313.18 K, 6000 kPa, x2 = 0.7524	673.61
313.18 K, 7000 kPa, x2 = 0.0456	718.53
313.18 K, 7000 kPa, x2 = 0.7524	674.58
313.18 K, 8000 kPa, x2 = 0.0456	719.34
313.18 K, 8000 kPa, x2 = 0.7524	675.56
313.18 K, 9000 kPa, x2 = 0.0456	720.15
313.18 K, 9000 kPa, x2 = 0.7524	676.55
313.18 K, 10000 kPa, x2 = 0.0456	720.95
313.18 K, 10000 kPa, x2 = 0.7524	677.5
313.18 K, 10990 kPa, x2 = 0.0456	721.74
313.18 K, 10990 kPa, x2 = 0.7524	678.44
313.18 K, 12000 kPa, x2 = 0.0456	722.51
313.18 K, 12000 kPa, x2 = 0.7524	679.36
313.18 K, 13000 kPa, x2 = 0.0456	723.28
313.18 K, 13000 kPa, x2 = 0.7524	680.27
313.18 K, 14000 kPa, x2 = 0.0456	724.03
313.18 K, 14000 kPa, x2 = 0.7524	681.18
313.18 K, 15000 kPa, x2 = 0.0456	724.78
313.18 K, 15000 kPa, x2 = 0.7524	682.08
313.18 K, 16000 kPa, x2 = 0.0456	725.51
313.18 K, 16000 kPa, x2 = 0.7524	682.96
313.18 K, 17000 kPa, x2 = 0.0456	726.24
313.18 K, 17000 kPa, x2 = 0.7524	683.82
313.18 K, 18000 kPa, x2 = 0.0456	726.96
313.18 K, 18000 kPa, x2 = 0.7524	684.65
313.18 K, 19000 kPa, x2 = 0.0456	727.67
313.18 K, 19000 kPa, x2 = 0.7524	685.47
313.18 K, 20000 kPa, x2 = 0.0456	728.36
313.18 K, 20000 kPa, x2 = 0.7524	686.29
313.18 K, 21000 kPa, x2 = 0.0456	729.05
313.18 K, 21000 kPa, x2 = 0.7524	687.07
313.18 K, 22000 kPa, x2 = 0.0456	729.74

From the NIST ThermoML archive (doi:10.1021/je200721d)
